Reference: ChEMBL document CHEMBL3991601, “The target landscape of clinical kinase drugs” (Science, 2017)
Activity calls are given as the source filed them.

How the values were obtained:
[1] = target: Ribosomal protein S6 kinase alpha-4 (Homo sapiens, UniProt O75676)
[2] = target: U5 small nuclear ribonucleoprotein 200 kDa helicase (Homo sapiens, UniProt O75643)
[3] = target: Fibroblast growth factor receptor 1 (Homo sapiens, UniProt P11362)
[4] = target: T1, Serine/threonine-protein kinase A-Raf (Homo sapiens, UniProt P10398)
T1 sequence (P10398 whole entry): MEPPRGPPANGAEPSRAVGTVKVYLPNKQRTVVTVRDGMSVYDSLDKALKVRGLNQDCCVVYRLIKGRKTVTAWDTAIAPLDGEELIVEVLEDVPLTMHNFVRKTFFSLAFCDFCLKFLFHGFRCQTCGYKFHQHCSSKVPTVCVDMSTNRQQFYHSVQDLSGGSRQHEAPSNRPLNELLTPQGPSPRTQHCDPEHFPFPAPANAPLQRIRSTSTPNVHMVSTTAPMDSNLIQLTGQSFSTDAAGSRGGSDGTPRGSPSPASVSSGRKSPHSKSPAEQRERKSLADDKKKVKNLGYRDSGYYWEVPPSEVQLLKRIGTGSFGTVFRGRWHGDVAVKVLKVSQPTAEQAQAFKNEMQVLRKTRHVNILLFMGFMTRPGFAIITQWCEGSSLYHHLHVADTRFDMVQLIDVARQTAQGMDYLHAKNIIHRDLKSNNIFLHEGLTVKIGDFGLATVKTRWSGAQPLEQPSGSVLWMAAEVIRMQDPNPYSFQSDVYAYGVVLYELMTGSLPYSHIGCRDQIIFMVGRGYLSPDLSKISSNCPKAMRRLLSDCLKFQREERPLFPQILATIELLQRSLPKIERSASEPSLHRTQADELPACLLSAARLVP

[5] = target: Tyrosine-protein kinase Lyn (Homo sapiens, UniProt P07948)
Sequence of Tyrosine-protein kinase Lyn (P07948 whole entry): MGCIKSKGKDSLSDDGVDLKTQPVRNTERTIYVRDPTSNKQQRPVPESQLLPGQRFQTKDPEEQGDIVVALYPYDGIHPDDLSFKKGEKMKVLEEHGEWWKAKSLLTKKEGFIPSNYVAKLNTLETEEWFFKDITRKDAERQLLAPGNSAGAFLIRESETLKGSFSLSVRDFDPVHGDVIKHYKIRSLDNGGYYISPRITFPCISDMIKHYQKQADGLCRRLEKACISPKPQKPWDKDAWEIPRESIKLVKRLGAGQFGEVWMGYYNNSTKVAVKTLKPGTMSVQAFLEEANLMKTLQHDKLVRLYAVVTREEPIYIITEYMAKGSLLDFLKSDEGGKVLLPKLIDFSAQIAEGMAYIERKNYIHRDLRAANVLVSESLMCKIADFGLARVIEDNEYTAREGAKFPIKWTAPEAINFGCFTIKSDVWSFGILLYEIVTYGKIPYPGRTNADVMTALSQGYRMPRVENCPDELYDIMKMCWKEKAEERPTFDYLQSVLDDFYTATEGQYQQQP

[6] = target: GTP-binding protein 4 (Homo sapiens, UniProt Q9BZE4)
[7] = target: T2, Beta-adrenergic receptor kinase 1 (Homo sapiens, UniProt P25098)
T2 sequence (P25098 whole entry): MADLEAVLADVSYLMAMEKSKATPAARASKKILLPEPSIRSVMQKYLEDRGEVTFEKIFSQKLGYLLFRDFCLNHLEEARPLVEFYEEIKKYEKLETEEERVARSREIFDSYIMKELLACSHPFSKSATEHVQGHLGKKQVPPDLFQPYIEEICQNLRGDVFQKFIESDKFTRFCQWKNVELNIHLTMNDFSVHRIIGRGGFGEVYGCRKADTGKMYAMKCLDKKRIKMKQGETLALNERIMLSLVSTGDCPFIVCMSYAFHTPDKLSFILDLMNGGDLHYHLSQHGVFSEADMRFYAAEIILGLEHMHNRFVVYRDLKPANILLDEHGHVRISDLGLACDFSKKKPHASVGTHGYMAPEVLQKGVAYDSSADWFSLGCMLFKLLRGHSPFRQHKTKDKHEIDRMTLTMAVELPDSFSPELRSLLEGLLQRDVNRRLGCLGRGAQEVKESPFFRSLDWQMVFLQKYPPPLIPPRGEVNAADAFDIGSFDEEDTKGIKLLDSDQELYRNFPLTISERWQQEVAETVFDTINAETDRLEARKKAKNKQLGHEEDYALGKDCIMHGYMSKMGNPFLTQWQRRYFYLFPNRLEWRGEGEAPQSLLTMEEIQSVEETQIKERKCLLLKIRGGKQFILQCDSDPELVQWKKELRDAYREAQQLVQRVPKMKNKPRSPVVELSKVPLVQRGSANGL

[8] = target: Casein kinase I isoform delta (Homo sapiens, UniProt P48730)
Sequence of Casein kinase I isoform delta (P48730 whole entry, canonical isoform): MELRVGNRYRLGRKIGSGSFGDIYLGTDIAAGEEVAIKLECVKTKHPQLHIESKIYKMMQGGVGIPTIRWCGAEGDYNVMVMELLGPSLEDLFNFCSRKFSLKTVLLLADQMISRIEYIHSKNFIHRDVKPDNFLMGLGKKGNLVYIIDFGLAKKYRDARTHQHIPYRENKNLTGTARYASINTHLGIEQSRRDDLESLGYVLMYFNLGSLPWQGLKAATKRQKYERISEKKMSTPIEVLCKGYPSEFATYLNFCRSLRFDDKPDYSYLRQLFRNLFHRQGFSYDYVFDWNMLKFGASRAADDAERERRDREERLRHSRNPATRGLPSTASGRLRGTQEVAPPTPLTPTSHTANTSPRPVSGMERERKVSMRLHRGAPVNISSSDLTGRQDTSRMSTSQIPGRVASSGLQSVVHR

[9] = target: T3, Serine/threonine-protein kinase TAO2 (Homo sapiens, UniProt Q9UL54)
T3 sequence (Q9UL54 whole entry): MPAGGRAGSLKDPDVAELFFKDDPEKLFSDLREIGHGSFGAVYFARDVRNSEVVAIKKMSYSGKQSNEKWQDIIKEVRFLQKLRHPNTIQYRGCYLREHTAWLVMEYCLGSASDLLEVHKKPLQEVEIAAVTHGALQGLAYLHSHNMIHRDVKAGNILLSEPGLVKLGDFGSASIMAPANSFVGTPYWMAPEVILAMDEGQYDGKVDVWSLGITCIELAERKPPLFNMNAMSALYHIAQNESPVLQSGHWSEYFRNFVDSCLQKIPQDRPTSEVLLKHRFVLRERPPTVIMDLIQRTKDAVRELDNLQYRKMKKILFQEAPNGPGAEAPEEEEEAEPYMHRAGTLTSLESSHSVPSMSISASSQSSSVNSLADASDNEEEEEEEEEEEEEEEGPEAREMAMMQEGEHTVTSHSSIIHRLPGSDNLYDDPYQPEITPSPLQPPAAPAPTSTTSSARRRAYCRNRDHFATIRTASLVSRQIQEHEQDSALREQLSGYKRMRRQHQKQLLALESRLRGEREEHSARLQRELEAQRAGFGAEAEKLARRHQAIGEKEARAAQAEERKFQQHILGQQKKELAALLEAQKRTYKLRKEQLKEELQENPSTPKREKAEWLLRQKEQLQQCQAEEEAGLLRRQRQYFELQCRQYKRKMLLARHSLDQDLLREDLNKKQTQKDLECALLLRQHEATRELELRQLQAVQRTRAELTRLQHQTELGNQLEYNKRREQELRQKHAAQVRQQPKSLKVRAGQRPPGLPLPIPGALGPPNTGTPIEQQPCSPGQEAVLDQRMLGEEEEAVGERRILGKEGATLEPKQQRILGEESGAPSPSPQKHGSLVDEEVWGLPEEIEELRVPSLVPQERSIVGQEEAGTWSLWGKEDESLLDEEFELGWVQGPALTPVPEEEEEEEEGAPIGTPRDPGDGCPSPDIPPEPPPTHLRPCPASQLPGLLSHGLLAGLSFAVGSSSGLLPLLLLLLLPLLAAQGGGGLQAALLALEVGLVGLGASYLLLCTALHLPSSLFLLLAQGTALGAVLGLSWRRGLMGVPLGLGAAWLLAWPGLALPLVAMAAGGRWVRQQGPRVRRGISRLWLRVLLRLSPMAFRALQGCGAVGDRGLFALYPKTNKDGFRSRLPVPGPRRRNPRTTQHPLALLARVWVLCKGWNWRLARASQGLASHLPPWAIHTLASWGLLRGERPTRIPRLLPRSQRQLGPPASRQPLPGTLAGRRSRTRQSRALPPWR
Also: in the data inactive means no Kd found up to 30 µM.

Sequence of U5 small nuclear ribonucleoprotein 200 kDa helicase (O75643 whole entry): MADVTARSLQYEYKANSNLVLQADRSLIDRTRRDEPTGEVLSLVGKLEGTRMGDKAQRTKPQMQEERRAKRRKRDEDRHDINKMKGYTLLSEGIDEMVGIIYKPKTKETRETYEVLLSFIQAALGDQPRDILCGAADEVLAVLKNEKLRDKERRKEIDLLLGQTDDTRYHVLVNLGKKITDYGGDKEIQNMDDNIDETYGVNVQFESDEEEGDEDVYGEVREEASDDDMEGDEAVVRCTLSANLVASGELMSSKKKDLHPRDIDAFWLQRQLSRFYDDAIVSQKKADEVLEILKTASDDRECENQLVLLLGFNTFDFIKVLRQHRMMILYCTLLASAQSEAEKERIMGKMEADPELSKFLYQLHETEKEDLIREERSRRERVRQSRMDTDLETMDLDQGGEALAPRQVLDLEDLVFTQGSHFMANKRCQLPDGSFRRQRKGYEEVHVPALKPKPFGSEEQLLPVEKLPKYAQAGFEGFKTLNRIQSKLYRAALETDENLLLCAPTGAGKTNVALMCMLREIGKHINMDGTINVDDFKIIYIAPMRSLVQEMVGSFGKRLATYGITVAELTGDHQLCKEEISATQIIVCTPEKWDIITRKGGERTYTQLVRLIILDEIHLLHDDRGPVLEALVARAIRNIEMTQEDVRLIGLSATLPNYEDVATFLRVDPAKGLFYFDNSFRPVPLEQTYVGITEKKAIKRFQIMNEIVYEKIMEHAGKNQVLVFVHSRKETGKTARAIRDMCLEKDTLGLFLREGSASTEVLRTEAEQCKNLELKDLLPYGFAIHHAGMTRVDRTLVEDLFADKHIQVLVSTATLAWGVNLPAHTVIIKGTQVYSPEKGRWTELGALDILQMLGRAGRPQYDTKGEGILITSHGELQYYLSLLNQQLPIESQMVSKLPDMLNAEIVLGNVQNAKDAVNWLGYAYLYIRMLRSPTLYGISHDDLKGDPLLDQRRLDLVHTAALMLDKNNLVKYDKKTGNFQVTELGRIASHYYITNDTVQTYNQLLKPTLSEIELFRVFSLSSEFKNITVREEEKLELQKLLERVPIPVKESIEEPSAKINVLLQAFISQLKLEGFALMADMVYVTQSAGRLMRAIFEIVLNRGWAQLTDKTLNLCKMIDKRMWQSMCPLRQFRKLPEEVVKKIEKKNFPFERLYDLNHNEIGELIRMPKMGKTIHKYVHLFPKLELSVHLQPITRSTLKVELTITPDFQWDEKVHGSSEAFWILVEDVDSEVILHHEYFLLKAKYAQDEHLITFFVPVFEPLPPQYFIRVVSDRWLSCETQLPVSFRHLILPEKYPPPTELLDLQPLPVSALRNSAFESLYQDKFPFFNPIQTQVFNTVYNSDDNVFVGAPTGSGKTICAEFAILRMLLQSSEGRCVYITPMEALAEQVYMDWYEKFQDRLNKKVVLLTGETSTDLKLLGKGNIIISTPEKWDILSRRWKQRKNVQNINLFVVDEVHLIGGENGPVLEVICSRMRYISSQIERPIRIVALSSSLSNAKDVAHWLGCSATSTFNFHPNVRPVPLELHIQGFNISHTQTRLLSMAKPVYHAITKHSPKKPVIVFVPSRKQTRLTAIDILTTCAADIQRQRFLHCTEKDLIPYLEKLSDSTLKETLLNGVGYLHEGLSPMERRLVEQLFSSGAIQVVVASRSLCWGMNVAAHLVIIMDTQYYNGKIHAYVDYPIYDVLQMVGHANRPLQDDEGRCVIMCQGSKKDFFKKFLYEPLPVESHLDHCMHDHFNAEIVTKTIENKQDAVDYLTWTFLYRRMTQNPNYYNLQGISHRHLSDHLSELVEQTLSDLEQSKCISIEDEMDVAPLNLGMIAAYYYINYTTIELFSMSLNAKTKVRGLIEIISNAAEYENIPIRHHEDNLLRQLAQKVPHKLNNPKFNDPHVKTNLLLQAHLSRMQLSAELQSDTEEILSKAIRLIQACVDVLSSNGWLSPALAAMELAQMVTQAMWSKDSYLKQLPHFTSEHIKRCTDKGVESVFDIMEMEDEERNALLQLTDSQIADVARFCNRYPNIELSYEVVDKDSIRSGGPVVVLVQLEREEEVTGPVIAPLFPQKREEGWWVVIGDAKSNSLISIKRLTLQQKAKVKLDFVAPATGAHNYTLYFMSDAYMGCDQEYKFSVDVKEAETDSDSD
Sequence of Fibroblast growth factor receptor 1 (P11362 whole entry): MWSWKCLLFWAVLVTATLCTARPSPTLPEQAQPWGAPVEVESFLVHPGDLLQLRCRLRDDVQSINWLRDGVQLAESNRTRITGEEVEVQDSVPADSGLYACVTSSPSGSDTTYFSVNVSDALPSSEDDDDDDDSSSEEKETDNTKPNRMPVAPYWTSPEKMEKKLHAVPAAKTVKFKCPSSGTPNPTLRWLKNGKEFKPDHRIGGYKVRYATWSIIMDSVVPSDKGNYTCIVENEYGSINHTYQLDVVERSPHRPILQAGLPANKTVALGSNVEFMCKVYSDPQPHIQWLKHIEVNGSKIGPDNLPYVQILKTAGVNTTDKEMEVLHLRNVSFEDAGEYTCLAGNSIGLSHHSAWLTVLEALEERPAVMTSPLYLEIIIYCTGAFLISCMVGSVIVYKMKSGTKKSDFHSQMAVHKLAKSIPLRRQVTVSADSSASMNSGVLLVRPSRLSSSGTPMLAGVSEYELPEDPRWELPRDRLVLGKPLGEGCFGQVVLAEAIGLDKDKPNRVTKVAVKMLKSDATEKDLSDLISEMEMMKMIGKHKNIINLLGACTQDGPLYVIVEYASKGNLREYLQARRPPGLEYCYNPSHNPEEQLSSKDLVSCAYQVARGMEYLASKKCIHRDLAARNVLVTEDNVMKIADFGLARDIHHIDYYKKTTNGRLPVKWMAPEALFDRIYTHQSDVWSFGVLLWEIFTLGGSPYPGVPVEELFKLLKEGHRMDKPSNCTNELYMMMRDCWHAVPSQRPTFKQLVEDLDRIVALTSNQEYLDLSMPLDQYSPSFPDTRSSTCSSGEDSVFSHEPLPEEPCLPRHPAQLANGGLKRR
Sequence of Ribosomal protein S6 kinase alpha-4 (O75676 whole entry): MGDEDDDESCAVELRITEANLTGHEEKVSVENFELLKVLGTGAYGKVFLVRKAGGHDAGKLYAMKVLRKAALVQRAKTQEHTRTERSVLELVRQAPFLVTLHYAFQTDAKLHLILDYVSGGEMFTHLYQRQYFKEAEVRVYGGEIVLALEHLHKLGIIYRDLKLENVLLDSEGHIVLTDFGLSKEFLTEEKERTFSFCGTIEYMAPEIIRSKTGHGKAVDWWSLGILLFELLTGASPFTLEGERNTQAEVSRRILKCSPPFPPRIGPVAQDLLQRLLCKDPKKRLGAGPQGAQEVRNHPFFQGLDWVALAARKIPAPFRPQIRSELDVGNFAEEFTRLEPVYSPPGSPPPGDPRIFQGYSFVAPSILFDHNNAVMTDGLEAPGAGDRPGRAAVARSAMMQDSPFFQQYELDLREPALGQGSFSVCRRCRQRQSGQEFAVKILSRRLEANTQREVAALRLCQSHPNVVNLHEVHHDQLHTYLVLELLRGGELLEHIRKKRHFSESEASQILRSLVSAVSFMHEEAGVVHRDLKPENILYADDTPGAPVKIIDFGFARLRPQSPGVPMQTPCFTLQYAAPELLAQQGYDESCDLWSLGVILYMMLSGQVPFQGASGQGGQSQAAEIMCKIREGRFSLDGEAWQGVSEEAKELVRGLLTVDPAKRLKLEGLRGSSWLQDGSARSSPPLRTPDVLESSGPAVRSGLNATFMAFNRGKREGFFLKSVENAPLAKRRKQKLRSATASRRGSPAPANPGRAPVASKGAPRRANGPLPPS

SMILES | Kd [1] | Kd [2] | Kd [3] | Kd [4] | Kd [5] | Kd [6] | Kd [7] | Kd [8] | Kd [9]
O=c1[nH]c([C@@H]2CCCN2)nc2c1oc1ccc(Cl)cc12 | > 30 µM (inactive) | > 30 µM (inactive) | > 30 µM (inactive) | > 30 µM (inactive) | > 30 µM (inactive) | > 30 µM (inactive) | > 30 µM (inactive) | > 30 µM (inactive) | > 30 µM (inactive)
Cn1cc(-c2[nH]c3cc(NC(=O)[C@H](N)C4CCCCC4)cc4c3c2C=NNC4=O)cn1 | 1.05 µM (active) | > 30 µM (inactive) | 0.192 µM (active) | > 30 µM (inactive) | 0.331 µM (active) | > 30 µM (inactive) | 3.56 µM (active) | > 30 µM (inactive) | > 30 µM (inactive)
C=CCn1c(=O)c2cnc(Nc3ccc(N4CCN(C)CC4)cc3)nc2n1-c1cccc(C(C)(C)O)n1 [ADAVOSERTIB] | > 30 µM (inactive) | > 30 µM (inactive) | – | > 30 µM (inactive) | > 30 µM (inactive) | > 30 µM (inactive) | > 30 µM (inactive) | > 30 µM (inactive) | > 30 µM (inactive)
CN(C)C/C=C/C(=O)Nc1cc2c(Nc3ccc(F)c(Cl)c3)ncnc2cc1O[C@H]1CCOC1 [AFATINIB] | – | > 30 µM (inactive) | – | > 30 µM (inactive) | – | > 30 µM (inactive) | > 30 µM (inactive) | – | –
NC[C@@](O)(c1ccc(Cl)cc1)c1ccc(-c2cn[nH]c2)cc1 [AT-13148] | > 30 µM (inactive) | > 30 µM (inactive) | > 30 µM (inactive) | – | > 30 µM (inactive) | > 30 µM (inactive) | 0.17 µM (active) | > 30 µM (inactive) | > 30 µM (inactive)
CCN(CCCOc1ccc2c(Nc3cc(CC(=O)Nc4cccc(F)c4)n[nH]3)ncnc2c1)CCOP(=O)(O)O [BARASERTIB] | > 30 µM (inactive) | > 30 µM (inactive) | – | – | 3.63 µM (active) | > 30 µM (inactive) | > 30 µM (inactive) | > 30 µM (inactive) | > 30 µM (inactive)
C[C@@]1(C(=O)Nc2ccc(F)nc2)CCCN1c1nc(Nc2cc(C3CC3)n[nH]2)c2cccn2n1 [BMS-754807] | – | > 30 µM (inactive) | – | > 30 µM (inactive) | – | > 30 µM (inactive) | – | – | –
CCOc1ccn(-c2ccc(F)cc2)c(=O)c1C(=O)Nc1ccc(Oc2ccnc(N)c2Cl)c(F)c1 [BMS-777607] | > 30 µM (inactive) | > 30 µM (inactive) | > 30 µM (inactive) | – | > 30 µM (inactive) | – | > 30 µM (inactive) | > 30 µM (inactive) | > 30 µM (inactive)
COc1cc2c(Oc3ccc4[nH]c(C)cc4c3F)ncnc2cc1OCCCN1CCCC1 [CEDIRANIB] | – | > 30 µM (inactive) | – | > 30 µM (inactive) | – | > 30 µM (inactive) | > 30 µM (inactive) | – | –
Cn1c(=O)n(-c2ccc(C(C)(C)C#N)cc2)c2c3cc(-c4cnc5ccccc5c4)ccc3ncc21 [DACTOLISIB] | > 30 µM (inactive) | > 30 µM (inactive) | – | > 30 µM (inactive) | > 30 µM (inactive) | > 30 µM (inactive) | > 30 µM (inactive) | > 30 µM (inactive) | > 30 µM (inactive)
O=S(=O)(c1cccc2cnccc12)N1CCCNCC1 [FASUDIL] | > 30 µM (inactive) | – | – | > 30 µM (inactive) | > 30 µM (inactive) | > 30 µM (inactive) | > 30 µM (inactive) | – | > 30 µM (inactive)
O=S(=O)(c1cccc2c(O)nccc12)N1CCCNCC1 [HYDROXYFASUDIL] | > 30 µM (inactive) | > 30 µM (inactive) | – | > 30 µM (inactive) | > 30 µM (inactive) | > 30 µM (inactive) | > 30 µM (inactive) | > 30 µM (inactive) | > 30 µM (inactive)
C[C@]1(O)C[C@@H](c2nc(-c3ccc4ccc(-c5ccccc5)nc4c3)c3c(N)nccn32)C1 [LINSITINIB] | > 30 µM (inactive) | > 30 µM (inactive) | – | > 30 µM (inactive) | – | > 30 µM (inactive) | > 30 µM (inactive) | – | –
N#CCNC(=O)c1ccc(-c2ccnc(Nc3ccc(N4CCOCC4)cc3)n2)cc1 [MOMELOTINIB] | > 30 µM (inactive) | > 30 µM (inactive) | > 30 µM (inactive) | > 30 µM (inactive) | – | > 30 µM (inactive) | > 30 µM (inactive) | > 30 µM (inactive) | > 30 µM (inactive)
CC1(C)CNc2cc(NC(=O)c3cccnc3NCc3ccncc3)ccc21 [MOTESANIB] | – | > 30 µM (inactive) | – | > 30 µM (inactive) | – | > 30 µM (inactive) | > 30 µM (inactive) | – | –
CN(c1ncccc1CNc1nc(Nc2ccc3c(c2)CC(=O)N3)ncc1C(F)(F)F)S(C)(=O)=O [PF-00562271] | > 30 µM (inactive) | > 30 µM (inactive) | – | > 30 µM (inactive) | – | > 30 µM (inactive) | > 30 µM (inactive) | – | > 30 µM (inactive)
Cn1cnc2c(F)c(Nc3ccc(Br)cc3Cl)c(C(=O)NOCCO)cc21 [SELUMETINIB] | – | > 30 µM (inactive) | – | > 30 µM (inactive) | – | > 30 µM (inactive) | > 30 µM (inactive) | – | –
O=C(O)c1ccc2c(c1)nc(Nc1cccc(Cl)c1)c1ccncc12 [SILMITASERTIB] | > 30 µM (inactive) | > 30 µM (inactive) | > 30 µM (inactive) | > 30 µM (inactive) | > 30 µM (inactive) | – | > 30 µM (inactive) | > 30 µM (inactive) | > 30 µM (inactive)
COc1cc2c(N3CCN(C(=O)Nc4ccc(OC(C)C)cc4)CC3)ncnc2cc1OCCCN1CCCCC1 [TANDUTINIB] | – | – | – | > 30 µM (inactive) | – | > 30 µM (inactive) | > 30 µM (inactive) | – | –
Cc1cc(-c2cc(OC(=O)c3ccccc3)ccc2Cl)cc2nnc(Nc3ccc(OCCN4CCCC4)cc3)nc12 [TG100-801] | > 30 µM (inactive) | – | > 30 µM (inactive) | > 30 µM (inactive) | > 30 µM (inactive) | > 30 µM (inactive) | > 30 µM (inactive) | > 30 µM (inactive) | > 30 µM (inactive)
